Assay results from patent US11180463B2, “Thiazole inner salt compounds, and preparation methods and uses thereof” (Institute of Pharmacology and Toxicology Academy of …, priority 2013, dated 2021).
Values joined by “and” are separate entries in the source; they are usually repeats but may differ in a detail not shown here. Identical values can stand only once. Counter-ions that a name gives are not always drawn. Like-named read-outs stand apart in the source and are kept apart here.

What was measured:
[1] = Accelerated stability test (RT40° C., RH75%); type: physicochemical; details: for Purity* (%) / Weight gain (%) / Appearance and color: RT40° C., RH75%; for Accelerated test, 3 months: appearance after 3 months at 40° C., humidity 75%, three batches
Description: Three batches of sample (prepared according to Example 2) were taken according to the Chinese Pharmacopoeia, 2010 Edition, packaged like packaging for sale (high-density polyethylene bags were used for drug packaging), placed under conditions of RT40° C., RH75% (NaCl saturated solution) to carry out accelerated test, after 1, 2, 3, 6 months, sampled for observation of the compound of Formula I and the compound of Formula A, compared to the data of the 0th day, and the results were shown in Table 1 and Table 2.
One batches of sample as prepared according to Example 3 were taken, packaged like packaging for sale (high-density polyethylene bags were used for drug packaging), placed under conditions of RT40° C., RH75% (NaCl saturated solution), after 1, 2, 3 months, sampled and compared to the data of the 0th day, and the results were shown in Table 3.
Three batches of sample of the compound of Formula A were taken according to the Chinese Pharmacopoeia, 2010 Edition, packaged like packaging for sale (high-density polyethylene bags were used for drug packaging), placed under conditions of RT40° C., RH75% (NaCl saturated solution), after 1, 2, 3 months, sampled and compared to the data of the 0th day, and the results were shown in Table 1 and Table 4.

[2] = test system: rats with diabetes accompanied by hypertension
Description: In the meantime, pure diabetes group and normal control group of the same week-age were also set. The compound of Example 2 (36 mg/kg) was dissolved in distilled water just before use, administered intragastrically, once per day, for 5 weeks.

[3] = test system: RBC surface cross-linked IgG; assay: In vitro breaking erythrocytic surface cross-linked IgG (ELISA, lytic rate); type: cell-based; details: RBC of 16 weeks diabetic rats, 37° C., 16-18 h
Source text: Because erythrocytic surface cross-linked IgG is a typical AGEs cross-linked structure, the determination of degree that a compound breaks erythrocytic surface cross-linked IgG is well known as a better method for evaluating the ability of the compound in breaking AGEs cross-linked structure (Bruceh. R. Wolffenbuttel, Breakers of advanced glycation end products restore large artery properties in experimental diabetes, Natl. Acad. Sci. U.S.A 1998, 95, 4630).
Method for treating blood cells: 16 weeks diabetic rats were narcotized, blood samples were got from their carotid arteries, added with heparin for anticoagulation, centrifuged at 4° C. and 1000 g for 3 min, the lower layer RBC (red blood cells) was taken; washed with 0.1 mol/L PBS (pH7.4) for 3 times, centrifuged each time at 4° C. and 1000 g for 3 min; and the lower layer RBC was used for test.
In vitro administration method: 0.1 mol/L isotonic PBS (phosphate buffer) (pH7.4) was used as negative control, each of the compounds to be tested formed solutions with different concentrations using the buffer. Into per 900 μL of solution or solvent, 100 μL RBC was added, slightly shook at 37° C. for 16-18 h; centrifuged at 1000 g, 4° C. for 3 min, the supernatant was discarded, the plate was washed with 0.1 mol/L PBS (pH7.4) for 4 times to remove residual compound; centrifuged at 1000 g, 4° C. for 3 min, the lower layer RBC was diluted in ratio of 1:100 for ELISA determination.
Procedure for determination of RBC surface cross-linked IgG content via immunoadsorption method: Multiscreen-HA 0.45 μm 96-well plate (Millipore), sealed with Superblock (300 μL/well), 37° C., 1 h; then drained under 5 mmHg of negative pressure, the whole plate was washed with PBST for 3 times, washed with 0.1M PBS (pH7.4) for twice, shaking plate each time for 1 min; added with RBC (50 μL/well) to be tested, another PBS background control well (OD0) was set; drained under negative pressure; washed with 150 μL of 0.1 mol/L PBS (pH7.4) for 4 times, shaking plate each time for 1 min. After being drained under negative pressure, the 1:500 diluted goat-anti-mouse IgG-HRP (50 μL/well) was added, stood at room temperature for 2 h, drained; washed with 0.1 mol/L PBS (pH7.4), 150 μL/well, for 3 times, shaking plate each time for 1 min; drained; added with o-phenylenediamine (OPD) substrate developing solution (100 μL/well), stood at room temperature in dark for 30 min, the reaction was terminated with 2 mol/L H2SO4 (100 μL/well); the reaction solution (150 μL/well) was sucked out quickly and transferred to a normal 96-well ELISA plate, and OD values were determined under 490 nm.
Calculation of Lytic Rates of the Compounds to be Tested: […]

[4] = test system: rats with diabetes accompanied by hypertension; assay: 24 h urine volume/water intake in rats with diabetes accompanied by hypertension; type: in vivo; details: 3rd week
Description: In the third week of administration, the rats of each group were solely placed and fed in metabolism cage, and the water intake and urine volume within 24 hours on the 19th, 20th and 21st day were recorded.
In the 3rd week of administering the compound of Example 2, Vurine/Vwater-intake values of rats in 24 hours were calculated.

[5] = test system: rats with diabetes accompanied by hypertension; assay: Blood pressure monitoring, compound of Example 2 alone (Example 7); type: in vivo; details: after 4 weeks
[6] = test system: long-term diabetic rats; details: in vivo, cited from earlier work
[7] = 36 mg/kg intragastrically once per day, Mean ± SD, n = 12
[8] = no significant change vs. model

## 3-methylcarbonyloxy-4-methyl-thiazole inner salt monohydrate [Example 3]
[1]; 0th month
  Purity* (%): 99.9%
  Weight gain (%): 0%
[1]; 1st month
  Purity* (%): 99.8%
  Weight gain (%): 0.04%
[1]; 2nd month
  Purity* (%): 99.7%
  Weight gain (%): 0.06%
[1]; 3rd month
  Purity* (%): 99.7%
  Weight gain (%): 0.07%

## COC(=O)C1=C(C)NC(C)=C(C(=O)OC)C1c1ccccc1[N+](=O)[O-] [Nifedipine]
[2]; after administration for 1-5 h
  systolic pressure variable coefficient (CV): 0.047±0.017
[2]; after administration for 20 min
  ejection time (ET): 71.8 ± 4.2 ms
[2]; after administration for 1 h
  average systolic pressure: 155.2±14.9 mmHg
[2]; after administration for 1.5 h
  pressure drop ΔSBP: 25.3±9.3 mmHg
[2]; after administration for 5 h
  average pulse-pressure difference (PH): 48.1±5.1 mmHg
  average systolic pressure: 166.0±15.0 mmHg
  ejection time (ET): 81.1 ± 5.0 ms
  pressure drop ΔSBP: 15.9±9.3 mmHg
[2]; after administration for 10 h
  average pulse-pressure difference (PH): 48.7±5.2 mmHg
  average systolic pressure: 179.0±14.1 mmHg
  pressure drop ΔSBP: 1.19±3.5 mmHg
[2]; rat, in vivo
  time after administration at which the systolic pressure started to rise: 2 h
  time after which pulse-pressure difference (PH) started to rise: 1 h
  time at which ET recovered the level before administration: 5 h

## Cc1csc[n+]1CC(=O)[O-] (as salt: salt) [Example 2]
other
  melting point: 169 °C

## Cc1csc[n+]1CC(=O)[O-] [Example 2]
[3]; 1 μM
  Lytic rate (decrease of OD value, %): 27.1 ± 2.2%
[3]; 10 μM
  Lytic rate (decrease of OD value, %): 27.5 ± 2.9%
[3]; 30 μM
  Lytic rate (decrease of OD value, %): 23.2 ± 5.1%
[3]; 100 μM
  Lytic rate (decrease of OD value, %): 27.9 ± 3.0%
[1]; 0th month
  Purity* (%): 100.0% and 99.6% and 99.8%
  Weight gain (%): 0%
[1]; 1st month
  Purity* (%): 99.7% and 99.8%
  Weight gain (%): 0.11% and 0.12%
[1]; 2nd month
  Purity* (%): 99.6% and 99.2%
  Weight gain (%): 0.12% and 0.13%
[1]; 3rd month
  Purity* (%): 99.8% and 99.3%
  Weight gain (%): 0.15% and 0.14% and 0.13%
[1]; 6th month
  Purity* (%): 99.9% and 99.6% and 99.8%
  Weight gain (%): 0.18% and 0.15%
[1]
  Accelerated test, 3 months: no obvious appearance change no obvious appearance change no obvious appearance change
[4]; [7]
  Vurine: 318.3 ± 106.0 mL
  Vwater-intake: 375.0 ± 123.6 mL
[4]; 36 mg/kg, P < 0.01 vs. model
  Vurine/Vwater-intake: 0.86 ± 0.05
[4]; first line so headed (r8), 36 mg/kg
  Vurine/bodyweight: 0.88 ± 0.31 mL/g
[4]; second line so headed (r9), 36 mg/kg
  Vurine/bodyweight: 1.03 ± 0.34 mL/g
[5]; in comparison with the model group, P<0.01
  systolic pressure variable coefficient (CV) during time period 10:00-20:00: significantly decrease
[5]; [8]
  average heart rate during time period 10:00-20:00: 255±17 beats/min
  average pulse-pressure difference during time period 10:00-20:00: 46.5±5.7 mmHg

## Cc1csc[n+]1CC(=O)O.[Na+] [Formula A, 3-carboxymethyl-4metyl-bromothiazolium sodium salt, reference compound]
[1]; 0th month
  Weight gain (%): 0%
[1]; 0th month, sodium salt
  Purity* (%): 98.8% and 99.1% and 98.7%
[1]; 1st month
  Appearance and color: brown, tacky
[1]; 1st month, sodium salt
  Purity* (%): 85.1% and 82.7% and 81.6%
  Weight gain (%): 18.0% and 18.5% and 19.0%
[1]; 2nd month
  Appearance and color: dark brown,
[1]; 2nd month, sodium salt
  Purity* (%): 60.6% and 59.8% and 60.3%
  Weight gain (%): 32.6% and 33.6% and 33.8%
[1]; 3rd month
  Appearance and color: dark brown,
[1]; 3rd month, sodium salt
  Purity* (%): 51.2% and 48.5% and 54.6%
  Weight gain (%): 41.5% and 42.1% and 44.0%
[1]; listed as drawing 8, sodium salt
  Accelerated test, 3 months: caking, appearance changing into dark brown caking, appearance changing into dark brown caking, appearance changing into dark brown
[1]; sodium salt
  Accelerated test, 3 months: easy to absorb moisture, agglomerate and change color
[6]; long-term diabetic rats
  AGEs fluorescence contents of aorta, myocardium of left ventricle and kidney: significantly reduce
[6]; rat
  aorta compliance of diabetic rats: improved
  cardiac output: increased
  left ventricular function: significantly improved
